Laboratory results as given in US20180306819A1, “ANTI-PLATELET RESPONSE AND REACTIVITY TEST USING SYNTHETIC COLLAGEN” (JNC CORPORATION, priority 2012, published 2018).

B1: abciximab: Fab Fragment Chimeric monoclonal antibody 7E3 (GP IIbIIIa receptor blocker) (antibody, chains of the INN, looked up, V domains shown)
VH: EVQLQQSGTVLARPGASVKMSCEASGYTFTNYWMHWVKQRPGQGLEWIGAIYPGNSDTSYIQKFKGKAKLTAVTSTTSVYMELSSLTNEDSAVYYCTLYDGYYVFAYWGQGTLVTVSA
VL: EIVLTQSPVTLSVTPGDSVSLSCRASRDISNNLHWFQQTSHESPRLLIKYASQSMSGIPSRFSGSGSGTDFTLSINSVETEDFGMYFCQQTNSWPYTFGGGTKLEIK
modifications: Fab

Tested on: normal human platelet rich plasma
Assay: Agonist-induced platelet aggregation in platelet rich plasma, PAP 8E aggregometer
Format: cell-based
Settings: non-aspirinized plasma; for effect on ADP-induced aggregation: ADP 10 μM; for effect on Bio/Data collagen-induced aggregation: Bio/Data collagen 190 μg/mL; for effect on Chrono Log collagen-induced aggregation: Chrono Log collagen 10 μg/mL; for effect on arachidonic acid-induced aggregation: arachidonic acid 500 μg/mL; for effect on aggregation induced by lower concentrations of synthetic collagen: synthetic collagen 32 ng/mL and lower (32, 16, 8 ng/mL); for effect on aggregation induced by 64 ng/mL synthetic collagen: synthetic collagen 64 ng/mL
Description: ADP was obtained from Bio/Data Corporation, Horsham, Pa. Each vial was reconstituted with 1 mL of deionized water to make a 100 μM working solution. The final concentration of ADP in the aggregation cuvette was 10 μM.
Arachidonic acid was obtained from Bio/Data Corporation, Horsham, Pa. Each vial was reconstituted with 0.5 mL deionized water to make a 5 mg/mL working solution. The final concentration of arachidonic acid in the aggregation cuvette was 500 μg/mL.
Collagen was obtained from Bio/Data Corporation, Horsham, Pa. Each vial was reconstituted with 0.5 mL deionized water to make a 1.9 mg/mL working solution. The final concentration of Bio/Data collagen in the aggregation cuvette was 190 μg/mL.
Collagen was obtained from Chrono Log Corporation, Havertown, Pa. as a 1 mg/mL solution. A working solution of 100 μg/mL was made by dilution with physiologic saline. The final concentration of Chrono Log collagen in the aggregation cuvette was 10 μg/mL.
Synthetic collagen was provided by JNC Corporation, Yokohama, Japan at working concentrations of 80, 160, 320 and 640 ng/mL. The final concentrations of synthetic collagen in the aggregation cuvette were 64, 32, 16 and 8 ng/mL.
Approval for the collection of whole blood from healthy human volunteers was granted from the Institutional Review Board of the Health Sciences Division of Loyola University Chicago. Whole blood was drawn using a double syringe technique from the antecubital vein and anticoagulated by the addition of 1 part 3.2% sodium citrate to (9 parts blood to 1 part citrate). Citrated blood was centrifuged at 80×g at room temperature for 15 minutes to make platelet rich plasma (PRP). Supernatant PRP was collected and kept at room temperature in capped tubes. The remaining citrated blood was recentrifuged at 1,100×g for 15 minutes to make platelet poor plasma (PPP). The platelet count of the PRP was determined using an ICHOR II Analyzer, Helena Laboratories, Beaumont, Tex. Platelet count in the PRP was adjusted to 250,000-300,000/μl by the addition of homologous PPP.
Platelet aggregation was measured using a PAP 8E platelet aggregometer (Bio/Data). Each well was blanked using PPP. 25 μl of saline or antiplatelet drug and 200 μl of PRP were added to cuvettes containing magnetic stir bars and incubated for three minutes to equilibrate the sample to 37° C. 25 μl of agonist was added to each cuvette and the aggregation profile was monitored until a plateau was achieved. Results were tabulated in terms of maximal aggregation level. Under some reaction conditions, reversible aggregation was observed. This was most commonly observed with ADP and arachidonic acid-induced aggregation in the presence of ticagrelor or cilostazol. Final aggregation levels were also tabulated.

| Molecule | effect on ADP-induced aggregation | effect on Bio/Data collagen-induced aggregation | effect on Chrono Log collagen-induced aggregation | effect on arachidonic acid-induced aggregation | effect on aggregation induced by lower concentrations of synthetic collagen | effect on aggregation induced by 64 ng/mL synthetic collagen | inhibition at 25 µM (Homo sapiens, Platelet, drug at 25 μM, read-out: inhibition of ADP-induced aggregation) [%] | effect on ADP-induced aggregation (listed as Cilostazol) | arachidonic acid-induced aggregation level (drug at concentrations ≥12.5 μM, 95% in the absence of drug) [%] | inhibition of agonist-induced aggregation (all agonists) (concentration range 1.25-5 μg/mL, FIG. 11) |
| --- | --- | --- | --- | --- | --- | --- | --- | --- | --- | --- |
| CCCSc1nc(N[C@@H]2C[C@H]2c2ccc(F)c(F)c2)c2nnn([C@@H]3C[C@H](OCCO)[C@@H](O)[C@H]3O)c2n1 [ticagrelor, (1S,2S,3R,5S)-3-[7-[[(1R,2S)-2-(3,4-difluorophenyl)cyclopropyl]amino]-5-propylsulfanyltriazolo[4,5-d]pyrimidin-3-yl]-5-(2-hydroxyethoxy)cyclopentane-1,2-diol] | strongly inhibited | Neither Bio/Data collagen, Chrono Log collagen nor 64 ng/mL synthetic collagen was markedly impacted | Neither Bio/Data collagen, Chrono Log collagen nor 64 ng/mL synthetic collagen was markedly impacted | inhibited to a similar extent | antiplatelet effects of Ticagrelor® could be identified | Neither Bio/Data collagen, Chrono Log collagen nor 64 ng/mL synthetic collagen was markedly impacted | – | – | – | – |
| O=C1CCc2cc(OCCCCc3nnnn3C3CCCCC3)ccc2N1 [cilostazol, Cilostazol] | minimally affected | did not inhibit aggregation | did not inhibit aggregation | strongly inhibited | the anti-platelet effect of higher concentrations of cilostazol could be observed | did not inhibit aggregation | ~30 | weaker, concentration-dependent inhibition | ~20 | – |
| B1 | inhibited aggregation | only observed at the 5 μg/mL concentration | only observed at the 5 μg/mL concentration | most sensitive for detecting the presence of abciximab | most sensitive for detecting the presence of abciximab | inhibited by abciximab to a comparable degree | – | – | – | concentration-dependent inhibition |
